In patent EP0414894A1 (priority 1989, dated 1990):
“And” between values parts separate entries of the source, which are not always exact repeats. Identical values can stand only once.

Legend:
domestic flies [1] = experiment: insecticidal activity, laboratory test in gauze boxes; format: in vivo; settings: 2% solution in 5% aqueous glucose; observed in 48-72 hours
Experimental: The compound obtained was used for preparing an insecticidal composition which was a 2% solution of the compound in a 5% aqueous solution of glucose. The test for activity of the insecticidal composition of the invention was conducted on domestic flies. Into gause 10x10 cm boxes /6 boxes/ 6-7-day flies were placed in the number of 50 individuals per box, which were of both sexes. The Petri dishes containing the insecticidal composition of the invention were put into 5 boxes. The observations for fly death were carried out in 48-72 hours. The Petri dish containing a 5% aqueous glucose solution were placed into a control box.

domestic flies [2] = experiment: insecticidal activity, full-scale (large-scale) test in premises; format: in vivo; settings: 2% solution, 2-3 dishes per 20 m²; 72 hours
Experimental: The full-scale tests for activity of the insecticidal composition of the invention to domestic flies in habitable and industrial premises were carried out as follows. The Petri dishes containing a 2% solution of the insecticidal composition of the invention were located according 2-3-dishes per 20 m². The composition activity was evaluated by a direct estimation of killed insects in 72 hours or by using an adhesive tape to count the number of flies on its surface prior to and after conducting the test.

Hepatitis B virus = experiment: virulicidal activity, HBsAg titer in blood serum
Text: table ratio instead of the test composition.

Meningopneumonia virus = system: Meningopneumonia virus; design: species or system meningopneumonia pathogene/MP strain/
Influenza A viruses = experiment: virulicidal activity, virus titer in allantoic fluid by hemagglutination-inhibition

Compound	Death of flies, % Tests in laboratory (domestic flies [1]) [%]	Death of flies, % Tests in large-scale (domestic flies [2]) [%]	Virulicidal activity (%) under exposure 30 min (Hepatitis B virus; concentration 1.0 % by mass) [%]	Virulicidal activity (%) under exposure 60 min (Hepatitis B virus; concentration 1.0 % by mass) [%]	Virulicidal activity (%) under exposure 30 min (Hepatitis B virus; concentration 2.0 % by mass)	Virulicidal activity (%) under exposure 60 min (Hepatitis B virus; concentration 2.0 % by mass)	Virulicidal activity (%) under exposure 30 min (Meningopneumonia virus)	Virulicidal activity (%) under exposure 60 min (Meningopneumonia virus)	Virulicidal activity (%) under exposure 30 min (Influenza A viruses; concentration 1.0 % by mass) [%]	Virulicidal activity (%) under exposure 60 min (Influenza A viruses; concentration 1.0 % by mass) [%]	Virulicidal activity (%) under exposure 30 min (Influenza A viruses; concentration 2.0 % by mass) [%]	Virulicidal activity (%) under exposure 60 min (Influenza A viruses; concentration 2.0 % by mass) [%]
CC(C)OP(=NC(CO)C(O)c1ccc([N+](=O)[O-])cc1)(OC(C)C)OC(C)C (stereo not drawn) [Example 3, triisopropoxyphosphazo-1-para-nitrophenyl-1,3-propandiol]	82.0	80.0										
O=[N+]([O-])c1ccc(C(O)C(CO)N=P(OC(CCl)c2ccccc2)(OC(CCl)c2ccccc2)OC(CCl)c2ccccc2)cc1 (stereo not drawn) [Example 4, tris/2-chloro-1-phenylethoxy/phosphazo-1-para-nitrophenyl-1,3-propandiol]	73.4	75.0										
CC(C)OP(=NC(CCl)C(O)c1ccc([N+](=O)[O-])cc1)(OC(C)C)OC(C)C (stereo not drawn) [Example 6, tri-isopropoxyphosphazo-1-para-nitrophenyl-1-chloro-3-propanol]	90.9	89.0	100.0	100.0	100,0%	100,0%	99.0% and 100.0%	100.0%	75.0	98.0	93.8	100.0
CCCCOP(=NC(CCl)C(O)c1ccc([N+](=O)[O-])cc1)(OCCCC)OCCCC (stereo not drawn) [Example 7, tri-n-butoxyphosphazo-1-paranitrophenyl-1-chloro-3-propanol]	96.0	96.8										
O=[N+]([O-])c1ccc(C(O)C(CCl)N=P(OC(CCl)c2ccccc2)(OC(CCl)c2ccccc2)OC(CCl)c2ccccc2)cc1 (stereo not drawn) [Example 8, tris/2-chlorol-phenylethoxy/-phosphazo-1-paranitrophenyl-1-chloro-3-propanol]	84.3	84.0										
CCCOP(=NC(CCl)C(Cl)c1ccc([N+](=O)[O-])cc1)(OCCC)OCCC (stereo not drawn) [Example 11, tri-n-propoxyphosphazo-1-para-nitrophenyl-1,3-dichloropropane]	89.0	89.0										
CC(C)OP(=NC(CCl)C(Cl)c1ccc([N+](=O)[O-])cc1)(OC(C)C)OC(C)C (stereo not drawn) [Example 12, triisopropoxyphosphazo-1-paranitrophenyl]	92.0	90.0										
CCCCOP(=NC(CCl)C(Cl)c1ccc([N+](=O)[O-])cc1)(OCCCC)OCCCC (stereo not drawn) [Example 13, tri-n-butoxyphosphazo-1-para-nitrophenyl-1,3-dichloropropane]	92.0	91.0	75.0	100.0	100,0%	100,0%	75.0% and 99.0%	100.0%	50.0	75.0	93.8	100.0
O=[N+]([O-])c1ccc(C(Cl)C(CCl)N=P(OC(CCl)c2ccccc2)(OC(CCl)c2ccccc2)OC(CCl)c2ccccc2)cc1 (stereo not drawn) [Example 14, tris-/2-chloro-1-phenoxy/phosphazo-1-para-nitrophenyl-1,3-dichloropropane]	71.3	70.0	100.0	100.0	100,0%	100,0%	50.0% and 90.0%	75.0% and 100.0%	75.0	93.8	93.8	100.0
